The nature of data set [1]: water solubility of products of Formula (I).
The nature of data set [2]: stability of product of Formula (I) in aqueous solution / acid medium. It counts as physicochemical.
The target in another data set is COX-2 (Homo sapiens, UniProt P35354). The following applies: Famaey 1997; Cullen et al. 1998; cited from earlier work.

For orientation: solubility means how much of the substance goes into solution per volume. Read a high solubility as much dissolved substance.

Converted amounts (≈) assume the structure as drawn.

Chain of COX-2 (P35354 18-604): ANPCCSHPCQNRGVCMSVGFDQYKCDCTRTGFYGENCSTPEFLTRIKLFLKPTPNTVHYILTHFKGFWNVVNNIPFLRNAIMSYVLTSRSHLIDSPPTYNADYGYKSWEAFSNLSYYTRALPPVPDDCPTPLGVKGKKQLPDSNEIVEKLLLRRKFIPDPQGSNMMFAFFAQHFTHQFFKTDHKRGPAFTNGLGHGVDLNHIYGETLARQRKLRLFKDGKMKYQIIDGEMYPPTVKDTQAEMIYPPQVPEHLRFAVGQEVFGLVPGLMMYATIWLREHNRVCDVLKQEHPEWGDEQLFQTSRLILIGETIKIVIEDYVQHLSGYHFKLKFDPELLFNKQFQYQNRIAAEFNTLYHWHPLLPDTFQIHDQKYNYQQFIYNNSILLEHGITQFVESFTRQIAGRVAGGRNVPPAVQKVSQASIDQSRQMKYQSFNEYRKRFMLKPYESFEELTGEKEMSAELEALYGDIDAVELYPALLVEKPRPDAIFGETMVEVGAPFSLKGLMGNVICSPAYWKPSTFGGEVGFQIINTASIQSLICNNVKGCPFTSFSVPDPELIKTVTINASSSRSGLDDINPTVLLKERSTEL

In data set [1], `CS(=O)(=O)N(c1ccc([N+](=O)[O-])cc1Oc1ccccc1)S(=O)(=O)O` [Product I in which X is Na] had a solubility of about 35 mg/mL (≈ 90.1 mM). Besides, the “effect of acidification of the solution” value in data set [2] (acidification to about pH 2 with HCl) was “decomposition of the product and precipitation of the theoretical quantity of nimesulide”. In addition, the “stability of the aqueous solution” value in data set [2] (approximately 3.5 wt.% aqueous solution, room temperature, seventh day) is “still stable on the seventh day”.
For `CS(=O)(=O)N(c1ccc([N+](=O)[O-])cc1Oc1ccccc1)S(=O)(=O)O` [acid form (X = H)], the “stability of the acid form” value in data set [2] (especially in an acid medium) was “rather unstable”.
With `CS(=O)(=O)Nc1ccc([N+](=O)[O-])cc1Oc1ccccc1` [nimesulide], at COX-2, the “COX-2 versus COX-1 inhibition preference” value is “inhibit preferentially COX-2 more than COX-1”.
